Entries after “also recorded” stand apart in the source; their conditions may differ.
Key:
[1] = α-helicity of LP17 and control peptide in saline and SSM; format: physicochemical; conditions: peptide 20 μM, SSM 5 mM
Protocol: The α-helicity of LP17 (20 μM) in saline and in SSM (5 mM) was tested. A control peptide ([…] (SEQ ID NO:2)) was also tested in saline and in SSM at the same concentrations.

TREM-1 = assay: Mouse model of ALI induced by aerosolized LPS, LP17 (Example 13); format: in vivo, Wild-type mice; conditions: 3 nmol s.c.; free peptide 48 and 24 h before LPS, nanomicellar 48 h before LPS
Protocol: The efficacy of nanomicellar LP17 was tested in a mouse model of ALI induced by aerosolized LPS. Wild-type mice were treated with LP17 or control peptide and with LP17 or control peptide self-associated with nanomicelles (each, 3 nmol; a dose similar to that used in previous experiments). Free peptides were administered subcutaneously 48 and 24 h before administration of LPS. Peptides self-associated with nanomicelles were administered to the mice only 48 h before LPS nebulization. Mice were exposed to nebulized LPS in a dose of 1 mg/ml for 40 min as previously described (Sadikot et al., Am. J. Respir. Crit. Care Med. 164: 873-8, 2001.) Control mice were treated with nebulized endotoxin-free PBS. TREM-1 was induced in lungs of mice at 4 hours after treatment with LPS. After 4 h, a bronchoalveolar lavage was carried out to determine total cell count and neutrophil count. Lungs, liver, and spleen were harvested from the mice and frozen for RNA and protein extraction. Real-time RT-PCR was carried out to analyze fold induction in TREM-1 gene expression.

[2] = Hydrophilicity/hydrophobicity balance of peptide; format: physicochemical
[3] = Blood glucose in mice with LPS-induced ALI (Example 17); format: in vivo; conditions: LPS-exposed mice, GLP-1 1250 μg/kg, cardiac puncture at conclusion
Protocol: Blood was obtained by cardiac puncture at the conclusion of the treatment. Median glucose concentration was 109, 183, 157, and 125 mg/dl, respectively.

[4] = Fluorescence anisotropy of GLP-1(7-36) in SSM / SSMM or saline; format: physicochemical; conditions: GLP-1(7-36) 125 μM in saline; n=3
From the text: Fluorescence anisotropy. […] The data indicated an increased viscosity of the peptide surrounding in the presence of SSM in contrast to saline.
This hypothesis was studied via determination of peptide fluorimetric anisotropy in the presence and absence of nanomicelles. This technique measures rigidity (or rotational freedom) of fluorophores by intensity of emitted fluorescence polarized parallel and perpendicular to that of excitation beam. A molecule that is restricted in its rotational motion due to viscous environment will emit fluorescence that is predominantly parallel to its excitation light source, giving a high anisotropy value.

ALI mice = assay: LPS-nebulization acute lung injury model, treatment after start of LPS (Example 7); format: in vivo; conditions: cardiac puncture at conclusion of treatment; LPS-exposed mice
Protocol: Mice are induced with acute lung injury (ALI) by treatment with lipopolysaccharide (LPS) nebulization (as described by Sadikot et al. […]: 873-8, 2001; Koay et al., Am. J. Respir. Cell Mol. Biol. 26: 572-8, 2002). […]
A dose of drug was administered subcutaneously (s.c.) 30 min after initialization of aerosolized LPS nebulization. […] All mice were sacrificed 4 hr after completion of nebulization. For each animal, bronchoalveolar lavage was carried out and the lungs were removed for analysis. Data from untreated (control) mice (no LPS nebulization or drug treatment) was also included in the data analysis for comparison.

[5] = DSPE-PEG2000:PxB saturation ratio by fluorescence spectroscopy; format: physicochemical; conditions: at saturation point
Protocol: To determine the saturation point for DSPE-PEG2000 with PxB, fluorescence spectroscopy was carried out. PxB concentration was fixed at 50 μM and the concentration of DSPE-PEG2000 was varied to allow DSPE-PEG2000:PxB ratios of 1:1, 3:1, 6:1, 10:1, 20:1, 60:1, and 100:1. A stock solution of DSPE-PEG2000 was prepared and allowed to equilibrate at 25° C. in the dark under argon gas for two hours. A stock solution of PxB (100 μM) was prepared in HEPES Buffer. Samples were prepared by pipetting the appropriate amount of buffer and stock solutions into each vial. Fluorescence measurements were made after allowing each sample to equilibrate for 1 hour in the dark at 25° C. 400 μl of each sample was measured three times by the spectrofluorometer. The maximum intensity of each sample was recorded from the spectrofluorometer and analyzed using Microsoft Excel and Sigma Plot.
To fit a curve to the graph of the data the equation was used because its shape best fit the data, where
When the lipid to peptide ratio approaches infinity, a plateau is reached in terms of the fluorescence intensity and the equation becomes where yp is the height of the plateau. […]
Using this value as y, the lipid to peptide saturation point can be calculated by substituting the values into the equation and solving for x, […]

[6] = Dynamic light scattering (NICOMP) particle size of PxB, PxB with DSPE-PEG2000 and SSM in saline; format: physicochemical; conditions: for particle size distribution with scale 10-10,000 nm: 6.9 mM PxB in saline, 2 hours, 25° C.
Protocol: In order to determine the optimum peptide to lipid ratio of PxB to SSM, fluorescence spectroscopy and NICOMP analysis were carried out on PxB at varying concentrations in sterile normal saline (SNS) and with DSPE-PEG2000 at a fixed concentration. In these experiments, PxB Sulphate (MW […], Research Products International Corp, Cat: P40160-1.0, Lot#003746), DSPE-PEG2000 (MW 2811 g/mol, Lipoid, Cat#PE18:0/18:0/PEG 2000, Lot#899346-1/10), Methanol, and HEPES Buffer (pH˜7.4) were used. Controls: SSM (1 mM) and Samples: PxB-SSM (1:1000) were prepared.
Specifically, PxB (at various concentrations ranging from 0.5 mM to 6.9 mM) in sterile normal saline (SNS) was incubated with DSPE-PEG2000 (1 mM). Stock solutions of PxB and DSPE-PEG2000 were prepared and equilibrated for 2 hours. After the 2 hour equilibration, stock solutions were characterized by dynamic light scattering (DLS) using the NICOMP 380 Submicron Particle Sizer (Particle Sizing Systems, Inc. Santa Barbara, Calif.). […] A SSM sample (1 mM) (n=1) was prepared in saline alone for comparison with the PxB-SSM samples. Concurrent samples of PxB (0.5, 1.0, 2.3 and 6.9 mM) were prepared in saline alone or with SSM (DSPE-PEG2000, 1 mM) (n=8). The samples were measured for 30 minutes using DLS at approximately 2, 24, and 48 hours after time 0.

LQVTDSGLYRCVIYHPP (SEQ ID NO: 1) (listed as Mus musculus) [LP17]
percent α-helicity in SSM compared to saline [1]: significantly greater
expression of TREM-1 mRNA (TREM-1): attenuated

glucagon-like peptide I (7-36) [GLP-1]
hydrophilicity/hydrophobicity balance [2]: ~0.987
Median glucose concentration [3]: 157 mg/dL
fluorescence anisotropy [4]: 0.045±0.012
Median blood glucose concentration (ALI mice): 157 mg/dL

polymyxin B [PxB]
molecules of PxB per micelle [5]: 3.6
critical micelle concentration (CMC) of PxB [6]: 1.0 to 2.3 mM
particle size (diameter), INT-WT NICOMP ([6]; 0.5 mM PxB, saline alone or with 1.0 mM DSPE-PEG2000, 24 hours): approximately 520 nm
particle size (diameter) ([6]; 1.0 mM PxB, 24 hours): 520 nm
particle size (diameter), INT-WT NICOMP ([6]; 1.0 mM PxB, saline alone or with 1.0 mM DSPE-PEG2000, 2 hours): 240 nm
large aggregates observed or not ([6]; 2.3 mM PxB): large aggregates were observed
particle size (diameter), INT-WT NICOMP ([6]; 2.3 mM PxB, saline alone or with 1 mM DSPE-PEG2000, 2 hours): approximately 850 nm
particle size distribution with scale 10-10,000 nm [6]: did not show peaks
particle size distribution with scale 10-10,000 nm ([6]; listed as PxB sulfate): no large aggregates
average particle size (diameter) ([6]; 6.9 mM PxB, 24 and 48 hour time points): 517 nm
particle size (diameter), VOL-WT NICOMP ([6]; 6.9 mM PxB, 48 hours): 4 nm
particle size (diameter), INT-WT NICOMP ([6]; 6.9 mM PxB, saline alone or with 1 mM DSPE-PEG2000, 2 hours, listed as PxB sulfate): 640 nm
particle size (diameter), INT-WT NICOMP ([6]; 6.9 mM PxB, saline alone or with 1 mM DSPE-PEG2000, 48 hours): 4 nm
particle size (diameter), INT-WT NICOMP ([6]; 6.9 mM PxB, saline alone or with 1 mM DSPE-PEG2000, 48 hours, listed as PxB sulfate): 517 nm
aggregation of PxB ([6]; all concentrations tested (0.5-6.9 mM), saline, 2-48 hours): showed aggregation of the peptide; also recorded: formed aggregates
PxB aggregate formation ([6]; range of concentrations tested, 10 μM to 23 mM): aggregates formed

Source: US20150086618A1, “PHOSPHOLIPID MICELLAR AND LIPOSOMAL COMPOSITIONS AND USES THEREOF” (THE BOARD OF TRUSTEES OF THE UNIVERSITY OF ILLINOIS, priority 2008, published 2015)
